Measured values published in patent US20230399312A1, “SUBSTITUTED PYRIMIDINES AND METHODS OF USE” (THERAVANCE BIOPHARMA R&D IP, LLC, priority 2020, published 2023).

Legend:
[1] = target: T1, recombinant human ALK5 (TGF-βR1) protein (Homo sapiens, UniProt P36897); assay: Biochemical ALK5 (TGF-βR1) assay to measure pKi (LANCE Ultra ULight kinase assay); conditions: apparent pKi, converted from pIC50 by Cheng-Prusoff
T1 construct: purchased Life Technologies PR9075A
T1 sequence (P36897 34-503): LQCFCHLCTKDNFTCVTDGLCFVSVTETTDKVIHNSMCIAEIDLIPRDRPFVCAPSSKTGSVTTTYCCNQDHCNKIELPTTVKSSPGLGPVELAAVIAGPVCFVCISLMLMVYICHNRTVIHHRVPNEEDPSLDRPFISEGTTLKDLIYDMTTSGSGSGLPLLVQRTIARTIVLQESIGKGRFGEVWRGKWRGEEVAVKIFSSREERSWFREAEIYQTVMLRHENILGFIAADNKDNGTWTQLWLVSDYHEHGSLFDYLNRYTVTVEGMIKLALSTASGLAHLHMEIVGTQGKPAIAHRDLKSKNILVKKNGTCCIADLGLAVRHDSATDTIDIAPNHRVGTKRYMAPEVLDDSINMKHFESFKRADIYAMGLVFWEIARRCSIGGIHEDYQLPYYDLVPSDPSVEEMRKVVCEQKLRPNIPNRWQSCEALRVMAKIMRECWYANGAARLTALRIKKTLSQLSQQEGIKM
Method in brief: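 Cmpd + enzyme, 60 min RT; ATP from 125 μM (5×) stock, 60 min 37 °C; stop 12 mM EDTA/Eu anti-pThr1342 Topo2α Ab (pH 7.0 buffer); TR-FRET 665 nm. DMSO = max, SD-208 = min signal. 4-PL pIC50 → pKi (Cheng-Prusoff).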

[2] = system: TGF-β-stimulated SMAD3 phosphorylation in BEAS-2B cells; assay: Cellular ALK5 potency assay, inhibition of TGF-β stimulated pSMAD3 formation in BEAS-2B cells; type: cell-based; conditions: Homo sapiens, pSMAD3, TGF-β 10 ng/mL, read-out: BEAS2B pIC50 (converted)
Method in brief: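 Read-out is AlphaLISA detection of phospho-SMAD3 in lysates of BEAS-2B human lung epithelial cells. Cells are exposed to compound for 1 hour, then to 10 ng/mL TGF-β (final) for 30 minutes. Values are pIC50 from concentration–response curves.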

Ki [1]	SMILES	IC50 [2]
0.0398 to 0.316 nM	Cc1cccc(-c2nccc(Nc3ccnc(Nc4ccnc(C(=O)O)c4)n3)n2)n1 [Compound 610, 4-[[4-[[2-(6-methyl-2-pyridyl)pyrimidin-4-yl]amino]pyrimidin-2-yl]amino]pyridine-2-carboxylic acid]	1580 to 10000 nM
3.98 to 31.6 nM	Cc1cccc(-c2nccc(Nc3ccnc(Nc4ccc(C(=O)OC5CNC5)cn4)n3)n2)n1 [Compound 622, azetidin-3-yl 6-[[4-[[2-(6-methyl-2-pyridyl)pyrimidin-4-yl]amino]pyrimidin-2-yl]amino]pyridine-3-carboxylate]	25.1 to 158 nM
0.0398 to 0.316 nM	Cc1cccc(-c2nccc(Nc3ccnc(Nc4ccc(CN5CCC[C@H](C(=O)O[C@H]6CCN(C)C6)C5)cc4)n3)n2)n1 [Compound 210, [(3S)-1-methylpyrrolidin-3-yl] (3S)-1-[[4-[[4-[[2-(6-methyl-2-pyridyl)pyrimidin-4-yl]amino]pyrimidin-2-yl]amino]phenyl]methyl] piperidine-3-carboxylate]	≤ 20 nM
0.0398 to 0.316 nM	CNC(=O)[C@H]1CN(c2ccc(Nc3nccc(Nc4ccnc(-c5cccc(C)n5)n4)n3)cc2)CCN1 [Compound 334, (2R)-N-methyl-4-[4-[[4-[[2-(6-methyl-2-pyridyl)pyrimidin-4-yl]amino]pyrimidin-2-yl]amino]phenyl]piperazine-2-carboxamide]	25.1 to 158 nM
0.0398 to 0.316 nM	Cc1cccc(-c2nccc(Nc3ccnc(Nc4csc(C(=O)OC[C@@H]5CCC[C@H](N)C5)c4)n3)n2)n1 [Compound 621, [(1R,3S)-3-aminocyclohexyl]methyl 4-[[4-[[2-(6-methyl-2-pyridyl)pyrimidin-4-yl]amino]pyrimidin-2-yl]amino]thiophene-2-carboxylate]	25.1 to 158 nM
0.0398 to 0.316 nM	Cc1cccc(-c2nccc(Nc3ccnc(Nc4ccc(NC(=O)C5CCN(C6CCNC6)CC5)cc4)n3)n2)n1 (centres unmarked) [Compound 465, N-[4-[[4-[[2-(6-methyl-2-pyridyl)pyrimidin-4-yl]amino]pyrimidin-2-yl]amino]phenyl]-1-pyrrolidin-3-yl-piperidine-4-carboxamide]	≤ 20 nM
0.398 to 3.16 nM	COCCn1cc(-c2ccc(Nc3nccc(Nc4ccnc(-c5cccc(C)n5)n4)n3)cc2)cn1 [Compound 169, N2-[4-[1-(2-methoxyethyl)pyrazol-4-yl]phenyl]-N4-[2-(6-methyl-2-pyridyl)pyrimidin-4-yl]pyrimidine-2,4-diamine]	25.1 to 158 nM
0.0398 to 0.316 nM	Cc1cccc(-c2nccc(Nc3ccnc(Nc4ccc(N5CCC(C(=O)O[C@H]6CCNC6)CC5)cc4)n3)n2)n1 [Compound 185, [(3S)-pyrrolidin-3-yl] 1-[4-[[4-[[2-(6-methyl-2-pyridyl)pyrimidin-4-yl]amino]pyrimidin-2-yl]amino]phenyl]piperidine-4-carboxylate]	25.1 to 158 nM
≤ 0.0316 nM	Cc1cccc(-c2nccc(Nc3ccnc(Nc4nc(C(=O)N[C@@H]5CCNC5)cs4)n3)n2)n1 [Compound 404, 2-[[4-[[2-(6-methyl-2-pyridyl)pyrimidin-4-yl]amino]pyrimidin-2-yl]amino]-N-[(3R)-pyrrolidin-3-yl]thiazole-4-carboxamide]	25.1 to 158 nM
0.0398 to 0.316 nM	CNCCNS(=O)(=O)c1ccc(Nc2nccc(Nc3ccnc(-c4cccc(C)n4)n3)n2)cc1 [Compound 427, N-[2-(methylamino)ethyl]-4-[[4-[[2-(6-methyl-2-pyridyl)pyrimidin-4-yl]amino]pyrimidin-2-yl]amino]benzenesulfonamide]	25.1 to 158 nM
≤ 0.0316 nM	Cc1cccc(-c2nccc(Nc3ccnc(Nc4ccc(N5CCN(C(C)C)CC5)cc4)n3)n2)n1 [Compound 189, N2-[4-(4-isopropylpiperazin-1-yl)phenyl]-N4-[2-(6-methyl-2-pyridyl)pyrimidin-4-yl]pyrimidine-2,4-diamine]	25.1 to 158 nM
0.0398 to 0.316 nM	Cc1cccc(-c2nccc(Nc3ccnc(Nc4cccc(NC(=O)C5CCNC5)c4)n3)n2)n1 (centres unmarked) [Compound 227, N-[3-[[4-[[2-(6-methyl-2-pyridyl)pyrimidin-4-yl]amino]pyrimidin-2-yl]amino]phenyl]pyrrolidine-3-carboxamide]	≤ 20 nM
0.0398 to 0.316 nM	Cc1cccc(-c2nccc(Nc3ccnc(Nc4ccc(CN5C[C@@H](C)NC[C@@H]5C)cc4)n3)n2)n1 [Compound 344, N2-[4-[[(2S,5R)-2,5-dimethylpiperazin-1-yl]methyl]phenyl]-N4-[2-(6-methyl-2-pyridyl)pyrimidin-4-yl]pyrimidine-2,4-diamine]	25.1 to 158 nM
≤ 0.0316 nM	Cc1cccc(-c2nccc(Nc3ccnc(Nc4cccc(NC(=O)CC5CNC5)c4)n3)n2)n1 [Compound 385, 2-(azetidin-3-yl)-N-[3-[[4-[[2-(6-methyl-2-pyridyl)pyrimidin-4-yl]amino]pyrimidin-2-yl]amino]phenyl]acetamide]	25.1 to 158 nM
0.0398 to 0.316 nM	Cc1cccc(-c2nccc(Nc3ccnc(Nc4ccc(NCCN5C[C@@H](C)N[C@@H](C)C5)cc4)n3)n2)n1 [Compound 263, N4-[2-(6-methyl-2-pyridyl)pyrimidin-4-yl]-N2-[4-[2-[rac-(3S,5R)-3,5-dimethylpiperazin-1-yl]ethylamino]phenyl] pyrimidine-2,4-diamine]	25.1 to 158 nM
0.0398 to 0.316 nM	Cc1cccc(-c2nccc(Nc3ccnc(Nc4ccc(CN5CC(C)(N(C)C)C5)cc4)n3)n2)n1 [Compound 262, N2-[4-[[3-(dimethylamino)-3-methyl-azetidin-1-yl]methyl]phenyl]-N4-[2-(6-methyl-2-pyridyl)pyrimidin-4-yl]pyrimidine-2,4-diamine]	25.1 to 158 nM
0.0398 to 0.316 nM	Cc1cccc(-c2nccc(Nc3ccnc(Nc4cccc(N)c4)n3)n2)n1 [Compound 315, N2-(3-aminophenyl)-N4-[2-(6-methyl-2-pyridyl)pyrimidin-4-yl]pyrimidine-2,4-diamine]	≤ 20 nM
0.0398 to 0.316 nM	Cc1cccc(-c2nccc(Nc3ccnc(Nc4ccc(NS(=O)(=O)N(C)C5CCNCC5)cc4)n3)n2)n1 [Compound 441, 4-[[2-[4-[[methyl(4-piperidyl)sulfamoyl]amino]anilino]pyrimidin-4-yl]amino]-2-(6-methyl-2-pyridyl)pyrimidine]	25.1 to 158 nM
0.0398 to 0.316 nM	Cc1cccc(-c2nccc(Nc3ccnc(Nc4ccc(N5CCCC(C(=O)OC6CCN(C)C6)C5)cc4)n3)n2)n1 (centres unmarked) [Compound 55, (1-methylpyrrolidin-3-yl) 1-[4-[[4-[[2-(6-methyl-2-pyridyl)pyrimidin-4-yl]amino]pyrimidin-2-yl]amino]phenyl]piperidine-3-carboxylate]	25.1 to 158 nM
0.0398 to 0.316 nM	Cc1cccc(-c2nccc(Nc3ccnc(Nc4ccc(CN5CCCC(C(=O)NC6CNC6)C5)cc4)n3)n2)n1 (centres unmarked) [Compound 214, N-(azetidin-3-yl)-1-[[4-[[4-[[2-(6-methyl-2-pyridyl)pyrimidin-4-yl]amino]pyrimidin-2-yl]amino]phenyl]methyl] piperidine-3-carboxamide]	25.1 to 158 nM
0.0398 to 0.316 nM	Cc1cccc(-c2nccc(Nc3ccnc(Nc4cccc(S(=O)(=O)NCCN(C)C)c4)n3)n2)n1 [Compound 420, N-[2-(dimethylamino)ethyl]-3-[[4-[[2-(6-methyl-2-pyridyl)pyrimidin-4-yl]amino]pyrimidin-2-yl]amino]benzenesulfonamide]	25.1 to 158 nM
0.398 to 3.16 nM	COC(=O)c1cnc(-c2cccc(C)n2)nc1Nc1ccnc(Nc2ccc(N)cc2)n1 [Compound 437, methyl 4-[[2-(4-aminoanilino)pyrimidin-4-yl]amino]-2-(6-methyl-2-pyridyl)pyrimidine-5-carboxylate]	25.1 to 158 nM
0.0398 to 0.316 nM	Cc1cccc(-c2nccc(Nc3ccnc(Nc4ccc(F)c(CN5C[C@@H](C)N[C@@H](C)C5)c4)n3)n2)n1 [Compound 130, N2-[4-fluoro-3-[[rac-(3R,5S)-3,5-dimethylpiperazin-1-yl]methyl]phenyl]-N4-[2-(6-methyl-2-pyridyl)pyrimidin-4-yl]pyrimidine-2,4-diamine]	25.1 to 158 nM
0.398 to 3.16 nM	Cc1cccc(-c2nccc(Nc3ccnc(Nc4cncc(C(=O)O[C@H]5CCNC5)c4)n3)n2)n1 [Compound 550, [(3S)-pyrrolidin-3-yl] 5-[[4-[[2-(6-methyl-2-pyridyl)pyrimidin-4-yl]amino]pyrimidin-2-yl]amino]pyridine-3-carboxylate]	25.1 to 158 nM
0.398 to 3.16 nM	COC(=O)CCc1ccc(Nc2nccc(Nc3ccnc(-c4cccc(C)n4)n3)n2)cc1 [Compound 517, methyl 3-[4-[[4-[[2-(6-methyl-2-pyridyl)pyrimidin-4-yl]amino]pyrimidin-2-yl]amino]phenyl]propanoate]	200 to 1260 nM
